Patent publication US10653688B2, “6-(6-membered heteroaryl and aryl)isoquinolin-3-yl carboxamides and preparation and use thereof” (Samumed, LLC, priority 2017, dated 2020)
pEC50: −log10 of the molar value. Read-outs that look alike come from different tables or passages of the source.

Tests used:
[1] = tested on: Wnt activity (SW480 colon carcinoma cells stably expressing the Sp5-Luc reporter gene); test: Wnt activity screening assay (Sp5-Luc reporter gene assay); format: cell-based, human; conditions: Homo sapiens; for pEC50: 36 to 48 hours; for inhibition at 10 µM: read-out: percent inhibition at 10 μM (given for EC50 >10 μM), 10 μM
In short: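 EC50 values come from a variable-slope four-parameter fit of luminescence normalized to DMSO-only wells. The read-out follows 36–48 h incubation at 37 °C, 5% CO2, in DMEM containing 1% fetal bovine serum. Cells are hygromycin-selected SW480 stably expressing firefly luciferase under a Wnt-responsive Sp5 promoter (eight TCF/LEF sites).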

[2] = molecular target: recombinant GSK3β kinase (Homo sapiens (Human), UniProt P49841); test: GSK3β kinase assay (Ser/Thr 09 peptide Z-lyte, FRET); format: biochemical;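 note: FRET read-out as coumarin over fluorescein emission ratio, compounds incubated one hour at room temperature, IC50 from dose-response curve fit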
Sequence of recombinant GSK3β kinase (P49841 whole entry): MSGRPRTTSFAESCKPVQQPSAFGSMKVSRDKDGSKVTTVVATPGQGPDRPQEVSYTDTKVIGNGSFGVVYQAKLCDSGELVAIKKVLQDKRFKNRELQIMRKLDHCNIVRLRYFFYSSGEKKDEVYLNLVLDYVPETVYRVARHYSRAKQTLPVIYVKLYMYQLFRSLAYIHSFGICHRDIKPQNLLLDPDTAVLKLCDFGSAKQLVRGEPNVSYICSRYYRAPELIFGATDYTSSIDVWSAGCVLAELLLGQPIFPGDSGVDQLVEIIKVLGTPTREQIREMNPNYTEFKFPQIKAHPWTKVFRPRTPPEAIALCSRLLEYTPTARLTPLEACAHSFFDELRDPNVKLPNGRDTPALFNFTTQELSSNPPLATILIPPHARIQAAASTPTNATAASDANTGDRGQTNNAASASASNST

[3] = tested on: Tau phosphorylation at Ser396 (pSer396) in SH-SY5Y cells; test: Tau phosphorylation at Ser396 (pSer396) cell assay, ELISA/western blot; format: cell-based, human; conditions: Homo sapiens; SH-SY5Y cells, overnight (16-18 h); read-out: pSer396 Tau EC50
Procedure: SH-SY5Y cells (human neuroblastoma) were cultured in DMEM/F-12 medium supplemented with 15% FBS, Non-essential Amino Acid and Penicillin/Streptomycin. Two days before treatment, cells were seeded onto 96 well plates at 5×10^4 cells/well.
The above synthesized compounds were screened using the cell assay procedure to assess decrease Tau phosphorylation at Ser396 (pSer396) described below.
DMSO-resuspended compounds were dispensed to 8 wells as a serial titration from 10 μM to 4.6 nM final in medium and cells were exposed overnight (16-18 h) in a humidified incubator at 36.6c before harvest.
Cells were lysed with RIPA buffer complemented with phosphatase and protease inhibitors then lysates were spun down at 12,000 g for 10 min to remove any cellular debris. Lysates are then either directly tested for pSer396 by ELISA (Life Technology, Kit KHB7031) or loaded on NuPage Bis-Tris gels for western blot analysis. Colorimetric detection of ELISA signal is performed by Cytation3 plate reader (Biotek) and the chemiluminescence signal for HRP-linked antibodies used in western blotting is detected using a Carestream Image Station. The same pSer396 antibody is used for detection of pTau in both assays.
Blot densitometry for pSer396 and β-actin were analyzed using ImageJ (NIH) and pSer396 Tau ELISA signal was used to plot, draw the curve fitting, and determine each compounds EC50 in Prism (GraphPad).

[4] = tested on: SW480 colon carcinoma cells; test: Cell viability assay (CellTiter-Glo); format: cell-based, human; conditions: Homo sapiens; for pEC50: 96 h, four days, CellTiter-Glo; for inhibition at 10 µM: read-out: percent inhibition at 10 μM (given for EC50 >10 μM), 10 μM
[5] = tested on: LL29 cells (primary human fibroblasts derived from IPF patients), α-smooth muscle actin; test: Inhibition of fibrotic process: TGF-β1-treated primary human fibroblasts, αSMA staining; format: cell-based; conditions: Homo sapiens, Fibroblast; for pEC50: 96 h, TGF-β1 20 ng/mL, 4 days, % cells positive for αSMA; for inhibition at 10 µM: read-out: percent inhibition at 10 μM (given for EC50 >10 μM), TGF-β1, αSMA, 10 μM;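 for all read-outs here: controls were TGF-β1-stimulated wells with DMSO vehicle as the positive reference and cells given DMSO alone as the negative reference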
Procedure: Representative compounds were screened using primary human fibroblasts (derived from IPF patients) treated with TGF-β1 to determine their ability to inhibit the fibrotic process.
Human Fibroblast Cell Culture:
Each compound was dissolved in DMSO as a 10 mM stock and used to prepare compound source plates. […] LL29 cells were plated at 1,500 cells/well in 70 μL/well F12 medium supplemented with 1% Fetal Bovine Serum. […] Wells treated with TGF-β1 and containing DMSO were used as positive control, and cells with only DMSO were negative control. Cells were incubated at 37° C. and 5% CO2 for 4 days. Following incubation for 4 days, SYTOX green nucleic acid stain (Life Technologies [Thermo Fisher Scientific]) was added to the wells at a final concentration of 1 μM and incubated at room temperature for 30 min. Cells were then fixed using 4% formaldehyde (Electron Microscopy Sciences), washed 3 times with PBS followed by blocking and permeabilization using 3% Bovine Serum Albumin (BSA; Sigma) and 0.3% Triton X-100 (Sigma) in PBS.

[6] = tested on: IL-6 in human peripheral blood mononuclear cells (huPBMCs); test: IL-6 inhibition in LPS-stimulated human peripheral blood mononuclear cells (HTRF); format: cell-based; conditions: Homo sapiens, PBMC; for pEC50: LPS 50 ng/mL, 22 hours, IL-6 HTRF; for inhibition at 10 µM: read-out: percent inhibition at 10 μM (given for EC50 >10 μM), LPS, IL-6, 10 μM
In short: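 Compound-treated huPBMCs (1×10e6 cells/mL, 1% FBS-RPMI) were stimulated after 2 h with LPS (50 ng/mL) for another 22 h at 37° C. An anti-IL-6 HTRF pair reported IL-6 as the 665/620 nm ratio; activity relative to DMSO, EC50 by 4-parameter Levenberg-Marquardt fitting, duplicates.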

[7] = molecular target: recombinant DYRK1A kinase (Homo sapiens (Human), UniProt Q13627); test: DYRK1A kinase assay (Ser/Thr 18 peptide Z-lyte, FRET)
[8] = tested on: pT212Tau in Dyrk1a- and MAPT-overexpressing HEK293T cells; test: Tau phosphorylation at Threonine 212 (pT212Tau) sandwich ELISA in double transfected cells; conditions: Homo sapiens, HEK-293T, read-out: Thr212 EC50 (μM)
[9] = tested on: secreted cytokines TNFα, IL-6 and KC-GRO in BV-2 cells (mouse microglial cells); test: Secreted cytokines in lipopolysaccharide-stimulated mouse glial cell line; format: cell-based; conditions: LPS 250 ng/mL 5 hours, table does not say which cytokine
Procedure: Representative compounds were screened using the cell-based assay procedure for secreted cytokines in a Lipopolysaccharide-stimulated mouse glial cell line described below.
BV-2 cells (mouse microglial cells) were cultured in 1:1 DMEM medium supplemented with 10% FBS, and 1% penicillin/streptomycin.
BV-2 cells are plated at 35,000 cells/well in a volume of 100 μl for at least 4 hours before compounds are added. DMSO-resuspended compounds were first dispensed in a 96-well plate and serial diluted from 10 μM to 4.6 nM final concentration in medium. Compounds were added to cells overnight. 250 ng/mL of lipopolysaccharide (Escherichia coli O111:B4, SIGMA) was added for 5 hours. Supernatant is removed and saved for further cytokine detection. The original plates with seeded cells were tested for cytotoxicity by measure of adenosine triphosphate (ATP) release by adding CellTiter-Glo® diluted 1:4 in distilled water (G7573, Promega) and transferring lysed cells to a completely black 96-well plate to be read with the Cytation3. Supernatant was then diluted 1:2 with a diluent from V-PLEX cytokine Kit and directly tested for the secreted cytokines TNFα, IL-6 and KC-GRO using electrochemiluminescence (Meso Scale Discovery). The standard curve for each cytokine was used to convert the electrochemiluminescent signal into pg of protein per mL. The signal was used to plot, draw the curve fitting, and determine each compounds EC50 in Prism (GraphPad).

[10] = GSK3β kinase, head says EC50, method says IC50, ATP 46 μM
[11] = DYRK1A kinase, head says EC50, method says IC50, ATP 30 μM

SMILES	pEC50 [1]	pEC50 [2, 10]	pEC50 [3]	pEC50 [4]	pEC50 [6]	pEC50 [7, 11]	pEC50 [2]	pEC50 [7]	pEC50 [9]	inhibition at 10 µM [1]	inhibition at 10 µM [4]	pEC50 [5]	inhibition at 10 µM [5]	inhibition at 10 µM [6]	EC50 [8]
CNC(=O)c1cncc(-c2ccc3cnc(NC(=O)C4CCN(C)CC4)cc3c2)c1 [Compound 58, N-Methyl-5-(3-(1-methylpiperidine-4-carboxamido)isoquinolin-6-yl) nicotinamide]	< 5.00	5.71	< 5.00	< 5.00	5.01	8.05				43.7%	30.9%	< 5.00	44.6%		
Cc1ncc(-c2ccc3cnc(NC(=O)C4CCN(C)CC4)cc3c2)cn1 [Compound 63, 1-Methyl-N-(6-(2-methylpyrimidin-5-yl)isoquinolin-3-yl)piperidine-4-carboxamide]	< 5.00	< 5.00	< 5.00	< 5.00	< 5.00	6.66				9.9%	7.4%	5.62		7.9%	
CN1CCC(C(=O)Nc2cc3cc(-c4cnc(N)nc4)ccc3cn2)CC1 [Compound 65, N-(6-(2-Aminopyrimidin-5-yl)isoquinolin-3-yl)-1-methylpiperidine-4-carboxamide]	< 5.00		< 5.00	< 5.00	< 5.00		5.05	7.32		32.2%	47.1%	5.61		0%	
CN(C)[C@H]1CC[C@H](C(=O)Nc2cc3cc(-c4cnccn4)ccc3cn2)CC1 [Compound 70, trans-4-(dimethylamino)-N-(6-(pyrazin-2-yl)isoquinolin-3-yl)cyclohexane-1-carboxamide]	< 5.00		5.11	< 5.00	5.03		6.12	7.77	7.24	31%	35.3%	6.20			

Continued, in another order:

pEC50 [1]	pEC50 [2, 10]	pEC50 [3]	pEC50 [4]	pEC50 [6]	pEC50 [7, 11]	pEC50 [2]	pEC50 [7]	pEC50 [9]	SMILES	inhibition at 10 µM [1]	inhibition at 10 µM [4]	pEC50 [5]	inhibition at 10 µM [5]	inhibition at 10 µM [6]	EC50 [8]
< 5.00	6.59	5.59	< 5.00	< 5.00	8.10				O=C(Nc1cc2cc(-c3cncc(F)c3)ccc2cn1)[C@H]1C[C@H](N2CCOCC2)C1 [Compound 16, trans-N-(6-(5-Fluoropyridin-3-yl)isoquinolin-3-yl)-3-morpholinocyclobutane-1-carboxamide]	24.9%	15.5%	< 5.00	6.7%	43.1%	0.046 µM
6.16	5.99	5.96	5.93	5.49	8.30				O=C(Nc1cc2cc(-c3cncc(OC4CCNCC4)c3)ccc2cn1)C1CC1 [Compound 55, N-(6-(5-(Piperidin-4-yloxy)pyridin-3-yl)isoquinolin-3-yl) cyclopropanecarboxamide]			5.69			
5.46	< 5.00	< 5.00	5.17	< 5.00	8.05				O=C(Nc1cc2cc(-c3cnccn3)ccc2cn1)c1ccc(CN2CCOCC2)cc1 [Compound 83, 4-(Morpholinomethyl)-N-(6-(pyrazin-2-yl)isoquinolin-3-yl)benzamide]			< 5.00	29.6%	5%	
5.98	6.74	6.09	5.62	5.68	8.22				O=C(Nc1cc2cc(-c3cncc(OCC4CNC4)n3)ccc2cn1)c1ccc(F)cc1 [Compound 124, N-(6-(6-(azetidin-3-ylmethoxy)pyrazin-2-yl)isoquinolin-3-yl)-4-fluorobenzamide]			< 5.00	5.2%		
